Results taken from ChEMBL document CHEMBL1124767, “Synthesis, pharmacological effects, and conformation of 4,4-disubstituted 1,4-dihydropyridines” (J Med Chem, 1990).
≈ marks a conversion by molar mass, not a printed value.

Key:
Oryctolagus cuniculus = species on record: Oryctolagus cuniculus; experiment: Evaluated in vitro for the inhibition of KCl-induced contraction of isolated rabbit aorta rings.; type: functional
Canis familiaris = experiment: In vivo antihypertensive activity against anaesthetized dogs after intravenous administration of specified threshold dose; type: functional, Canis lupus familiaris

Compound	IC50 (Oryctolagus cuniculus)	Dose (Canis familiaris)
CCC1(c2ccccc2)C(C(=O)OC)=C(C)N=C(C)/C1=C(/O)OC (stereo unspecified)	3.6 µg/mL (≈ 10.9 µM)	
CCOC(=O)C1=C(C)N=C(C)/C(=C(/O)OCC)C1(C)c1cccnc1 (stereo unspecified)	9 µg/mL (≈ 26.1 µM)	3 mg/kg
COC(=O)C1=C(C)N=C(C)/C(=C(/O)OC)C1(C)c1cccc([N+](=O)[O-])c1 (stereo unspecified)	2.3 µg/mL (≈ 6.38 µM)	0.3 mg/kg

More lines, main results first:

IC50 (Oryctolagus cuniculus)	Compound	Dose (Canis familiaris)
0.5 µg/mL (≈ 1.51 µM)	CCOC(=O)C1=C(C)N=C(C)/C(=C(/O)OCC)C1c1cccnc1 (stereo unspecified)	0.3 mg/kg
0.04 µg/mL (≈ 0.133 µM)	COC(=O)C1=C(C)NC(C)=C(C(=O)OC)C1c1ccccc1	0.05 mg/kg
1.2 µg/mL (≈ 3.81 µM)	COC(=O)C1=C(C)N=C(C)/C(=C(/O)OC)C1(C)c1ccccc1 (stereo unspecified)	3 mg/kg
